Assays:
[1] = tested on: SMN-RFP intron 5-6, αTC1; test: Live imaging of SMN-RFP; format: cell-based, mouse; details: 50 µM, 16 h
Text: Cell lines with fluorescent tags in the endogenous intron loci of different genes were generated as described in Serebrenik et al., and Reicher et al.[39],[74]. Cells were transiently transfected using Avalanche-Everyday Transfection Reagent with three plasmids in parallel: (1) the donor plasmid containing the artificial intron with splice acceptor and splice donor site, the fluorescent tag GFP or RFP, and a possible correction for the frame of the targeted intron, (2) a pX330 backbone containing Cas9 and the gRNA against the donor plasmid, and (3) a plasmid expressing the gRNA against the target intron (see table below). After 3–5 days, GFP- and/or RFP-positive cells were sorted on a SONY SH800 Cell Sorter to get fluorescent single cell clones. […]
Images were analyzed using the high-content image acquisition and analysis software Harmony® 4.9 developed by PerkinElmer. […] Even though the highest staining of these nuclear markers is obviously detected in the nucleus they still produce a significant staining of the cytoplasm above background. After defining the respective cell areas, mean intensity in the different channels was measured. […]

[2] = molecular target: T1, APEX2-SMNDC1^TD (Homo sapiens, UniProt O75940); test: APEX2-SMNDC1^TD proximity labeling, biotin enrichment and mass spectrometry; format: cell-based, mouse; details: compound-treated over DMSO; adjusted p-value<0.05, |log2FC|≥2
T1 construct: a truncated SMNDC1 consisting of only the Tudor domain and therefore lacking N-terminal and C-terminal regions; expressed in transfected cells
T1 sequence (O75940 72-132 limits assumed): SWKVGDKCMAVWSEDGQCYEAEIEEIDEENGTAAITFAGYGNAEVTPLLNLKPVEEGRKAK
Text: Proximity labeling with APEX2 was done following the described protocol for imaging and proteomic analysis. Cell lines with a stable expression of APEX2-fusion proteins were generated using lentiviral transduction of plasmids generated with Gateway cloning of the respective fusion protein into pLEX305. pLEX_305 was a gift from David Root (Addgene plasmid # 41390; http://n2t.net/addgene:41390; RRID:Addgene_41390). The APEX2 sequence was amplified from APEX2-csGBP which was a gift from Rob Parton (Addgene plasmid # 108874; http://n2t.net/addgene:108874; RRID:Addgene_108874). Briefly, cells were incubated with 0.5 mM biotin-phenol for 30 min, after which 1 mM H2O2 was added for exactly 1 min. Afterwards the labeling reaction was quenched by 3 quick washes with Quenching solution (10 mM sodium ascorbate, 10 mM sodium azide, 5 mM Trolox in PBS). […]
After proximity labeling, cells (~10 Mio. cells, 15 cm dish) were harvested, washed 2x in PBS, snap frozen and stored at −80 °C. […] After quantification of protein amounts by Pierce™ 660 nm Protein Assay, samples were normalized to 500 µg total protein input in a final volume of 300 µl lysis buffer. […]
Following data acquisition, acquired raw data files were processed using the Proteome Discoverer v.2.4.1.15 platform, choosing a TMT16plex quantification method. […]

[3] = tested on: αTC1 cells; test: Cell death, AnnexinV and Propidium Iodide staining
Text: PI+ cells (αTC1), treated with DMSO or compound 1 . Data shown as mean + standard

CN(C)S(=O)(=O)c1ccc(C(=O)Nc2nc(-c3ccccn3)cs2)cc1 [compound 1]
number of SMN spots in the cytoplasm [1]: increased | overall intensity of SMN [1]: decreased | proteins significantly depleted [2]: 0 proteins | proteins significantly enriched [2]: 5 proteins | percentage of AnnexinV and Propidium Iodide (PI) positive cells ([3]; 16 h after start of treatment): elevated | outcome of longer treatment ([3]; longer than 12–16 h at 50 µM): cell death | AnnexinV or PI staining relative to DMSO ([3]; reviewer's reading of the plot (Supplementary Fig. 5)): 2-3 times

Reference: paper PMC10432564, “Pharmacological perturbation of the phase-separating protein SMNDC1” (Nature Communications, 2023)
